# What was measured:
# Type in all cases: cell-based, Streptococcus pneumoniae R6
# Settings in all cases: signal sequence (wild type or mutated) fused to BlpI-HiBiT cargo peptide; R6; CDM+; CSP, BlpC and RtgSA-C10 treatment; 3 independent experiments
# ComAB = test: HiBiT peptide secretion assay, ComAB+ strain
# Description: (§1) FIG 5 RtgAB secretes different GG peptides from ComAB and BlpAB. R6 ComAB^−/BlpAB^−/RtgAB^− and single-transporter-positive ComAB^+, BlpAB^+, and RtgAB^+ strains expressing RtgC-HiBiT (A), RtgG-HiBiT (B), or BlpI-HiBiT (C) were grown in CDM+ to an OD620 of 0.05 and treated with 200 ng/ml CSP, 200 ng/ml BlpC, and 20 nM RtgSA-C10. Samples were taken every 30 min, and extracellular HiBiT signal was quantified. Data are presented as fold change values relative to the ComAB^−/BlpAB^−/RtgAB^− control. Red dashed lines represent fold change = 1 (no difference versus the control). Plots show means ± SEs from 3 independent experiments.
# (§2) Cells were inoculated from starter cultures to an OD620 of 0.005 and grown in CDM+. […] Samples were taken for HiBiT quantification at appropriate time points. […] HiBiT signal was quantified by mixing samples with HiBiT extracellular detection reagent (N2421; Promega) at a 1:1 ratio and reading luminescence with a Synergy HTX plate reader. Samples were also taken for quantification of intracellular peptide; for endpoint assays, they were taken concurrently with the extracellular samples, and for time course assays, they were taken at the last time point. Extracellular peptide was removed from these samples by proteinase K digestion, and then the cells were lysed and HiBiT signal was quantified as described above. […]
# (§3) and read 5 min following reagent addition. […]
# RtgAB = test: HiBiT peptide secretion assay, RtgAB+ strain
# Description: FIG 3 RtgAB secretes RtgC and RtgG. R6 ComAB^−/BlpAB^−/RtgAB^− and ComAB^−/BlpAB^−/RtgAB^+ strains expressing RtgC-HiBiT (A) or RtgG-HiBiT (B) were grown in CDM+ to an OD620 of 0.05 and treated with 200 ng/ml CSP, 200 ng/ml BlpC, and 20 nM RtgSA-C10. CSP and BlpC were added to allow for comparison with ComAB^+ and BlpAB^+ strains in later experiments. Samples were taken every 30 min, and extracellular HiBiT signal was quantified. Data are presented as fold change values relative to the ComAB^−/BlpAB^−/RtgAB^− control. Red dashed lines represent fold change = 1 (no difference versus the control). […]
# FIG 5 RtgAB secretes different GG peptides from ComAB and BlpAB. […] Samples were taken every 30 min, and extracellular HiBiT signal was quantified. […]
# as §2, with “point.” for “point. Extracellular peptide was removed from these samples by proteinase K digestion, and then the cells were lysed and HiBiT signal was quantified as described above.”
# as §3
# BlpAB = test: HiBiT peptide secretion assay, BlpAB+ strain
# Description: as §1, §2, §3
sequence,measurement,setting,value
MELILPNNYVDLEQEEMMYLDGG [SSRtgG],"secretion through ComAB, BlpI cargo peptide",ComAB,preventing its secretion through ComAB and BlpAB
same,"secretion through RtgAB, BlpI cargo peptide",RtgAB,promotes secretion of the BlpI cargo peptide through RtgAB
same,"secretion through BlpAB, BlpI cargo peptide",BlpAB,preventing its secretion through ComAB and BlpAB
